{"source": "patent US20260373103A1", "about": "“COMPOSITIONS AND METHODS FOR PREVENTING CARDIOMYOPATHY” (OHIO STATE INNOVATION FOUNDATION, priority 2022, published 2026)", "key": {"TOM20": {"test_system": "TOM20", "assay": "TOM20 ubiquitination and TOM20 protein level after A/O, western blot", "assay_type": "cell-based", "description": "HeLa cells and mouse embryonic fibroblasts (MEFs) were grown in Dulbecco's minimum essential medium (DMEM) with 10% fetal bovine serum (FBS) supplemented with penicillin-streptomycin. HeLa Parkin, PINK1 KO cells, WT and MFN2 KO cells were previously described. Cells stably expressing USP30 were generated using lentiviral vectors of pLVX-Puro-Myc-USP30. The USP30 plasmid was obtained from Addgene. The plasmid was transferred into a lentiviral vector and viral particles were prepared by transiently transfecting HEK293T using standard methods. For the drug treatment experiments, cells were incubated in medium containing a mixture of 5 μM oligomycin and 5 μM antimycin A (A/O; see figures for treatment times). In 18 h treatment, A/O were used in combination with 10 μM quinolyl-valyl-O-methylaspartyl-[−2,6-difluorophenoxy]-methyl ketone (QVD), a broad-spectrum caspase inhibitor. ST51000539 (ST-539) was purchased from Tim Tec, Inc. Other chemicals were from Sigma-Aldrich (St. Louis, MO, USA). For FACS analysis, cells stably expressing mt-Keima were incubated in medium containing a mixture of […] antimycin A for 1.5 h. Prior to A/O treatment, cultures were treated with DMSO or ST-539 at 3 μg/ml. Cells were trypsinized, washed once with PBS buffer and then resuspended into 500 μl of PBS prior to analysis using a BD Fortessa flow cytometer as previously described.\nCells were lysed in RIPA buffer (50 mM Tris-HCl, at pH 8.0; 150 mM NaCl; 1% (vol/vol) Nonidet P-40; 0.5% sodium deoxycholate, 0.1% SDS and protease inhibitor cocktail (Roche)) on ice. Primary antibodies were used at the following concentrations: USP30 (Santa Cruz, sc-515235, 1:200); TOM20 (Cell Signaling Technology, 42406S, 1:1000); TOM40 (Proteintech, 18409-1-AP, 1:1000); NDP52 (Cell Signaling Technology, 60732S, 1:1000); TIM23 (Proteintech, 11123-1-AP, 1:500); LC3A/B (Cell Signaling Technology, 4108S, 1:1000); GAPDH (Cell Signaling Technology, 5175S, 1:1000); PINK1 (Cell Signaling Technology, 6946S, 1:1000); ACTIN (Cell Signaling Technology, 3700S, 1:1000). The membranes were incubated with anti-rabbit (LI-COR, 926-32211, 1:15000) or anti-mouse (LI-COR, 926-68072, 1:15000) IgG secondary antibodies for 1 h at room temperature. Images were captured using the Odyssey system (LI-Cor). One representative blot is shown of three independent experiments.\nThe enzymatic activity of Parkin is to function as an E3 ubiquitin ligase. […] To investigate TOM20 ubiquitination during mitophagy, we treated HeLa cells stably expressing YFP-Parkin (Hela-Parkin) for up to 18 h with both the mitochondrial complex III inhibitor antimycin A and the ATP synthase inhibitor oligomycin (antimycin A/oligomycin/[A/O]; FIG. 1A). […] A/O treatment also results in a decline in the abundance of the OMM protein TOM40 and the inner mitochondrial protein TIM23 (FIG. 1A). […] In this context, increased expression of USP30 blocked the accumulation of ubiquitinated TOM20 and prevented the destruction of this outer mitochondrial protein, as well as TOM40 and TIM23, after A/O treatment (FIG. 1A). We then employed this cellular assay to monitor TOM20 turnover, and analyzed compounds known to be associated with the ubiquitination process for inhibitors of USP30. […] We defined the effects of this chemical using biochemical assays. […] Initially to assess mitophagy in cells, we monitored the degradation of the inner membrane protein, the translocase of the inner membrane 23 (TIM23), by immunoblotting (FIG. 5A). […] USP30's overexpression prevented a reduction in TIM23 and TOM40 levels.\nGenetic suppression of USP30 in Parkin-overexpressing cells promotes the clearance of mitochondria in response to mitochondrial depolarizing agents. […]"}, "TIM23": {"test_system": "TIM23", "assay": "TIM23 protein level/degradation after A/O, immunoblotting", "assay_type": "cell-based", "settings": "ST-539; HeLa-Parkin/USP30, A/O 18 h", "description": "HeLa cells and mouse embryonic fibroblasts (MEFs) were grown in Dulbecco's minimum essential medium (DMEM) with 10% fetal bovine serum (FBS) supplemented with penicillin-streptomycin. HeLa Parkin, PINK1 KO cells, WT and MFN2 KO cells were previously described. Cells stably expressing USP30 were generated using lentiviral vectors of pLVX-Puro-Myc-USP30. The USP30 plasmid was obtained from Addgene. The plasmid was transferred into a lentiviral vector and viral particles were prepared by transiently transfecting HEK293T using standard methods. For the drug treatment experiments, cells were incubated in medium containing a mixture of 5 μM oligomycin and 5 μM antimycin A (A/O; see figures for treatment times). In 18 h treatment, A/O were used in combination with 10 μM quinolyl-valyl-O-methylaspartyl-[−2,6-difluorophenoxy]-methyl ketone (QVD), a broad-spectrum caspase inhibitor. […]\nThe enzymatic activity of Parkin is to function as an E3 ubiquitin ligase. […] We then employed this cellular assay to monitor TOM20 turnover, and analyzed compounds known to be associated with the ubiquitination process for inhibitors of USP30. […] Initially to assess mitophagy in cells, we monitored the degradation of the inner membrane protein, the translocase of the inner membrane 23 (TIM23), by immunoblotting (FIG. 5A). […]"}, "[1]": {"test_system": "HeLa-Parkin and HeLa-Parkin cells expressing USP30", "assay": "Oxygen consumption, Seahorse assay", "assay_type": "cell-based", "description": "Measurement of intact cellular respiration was performed using the Seahorse XFe96 Analyzer as previously described. In brief, 2×10^4 cells per well were seeded in the Seahorse XF Cell Culture Microplate (Agilent) using high-glucose DMEM at 37 °C, with a humidified atmosphere of 5% CO2, overnight. And a sensor cartridge was hydrated in Seahorse XF Calibrant in a non-CO2 incubator overnight at 37 °C. The high-glucose DMEM in Cell Culture Microplate was changed to warmed assay medium and placed into a 37 °C non-CO2 incubator for 45 minutes prior to the assay. Oligomycin (1.5 μM/well), FCCP (1 μM/well) and Antimycin A (0.5 μM/well) were supplemented at 18 minutes, 36 minutes and 54 minutes, respectively. The results were analyzed using the Seahorse Wave software."}, "mice": {"test_system": "mice", "assay": "Safety / tolerability in mice", "assay_type": "in vivo", "settings": "25 mg/kg/day i.p. for 5 days", "description": "The mt-Keima mouse. ST-539 was dissolved into 1% DMSO in Sesame oil and injected intraperitoneally (i.p.) at doses of 25 mg/kg/day with five total doses. Both male and female mice were used in this study. The control group received vehicle only. Echocardiographic measurements were taken using a Vevo3100 Visual Sonics (Visual Sonics) system. The mice were lightly anesthetized with isoflurane and the ejection fraction, fractional shortening, and ventricular chamber dimensions were determined using 2-D-guided M mode images. Ejection fraction, fractional shortening, ventricular chamber dimensions, and left ventricular mass were calculated automatically using the VevoLAB program. All experiments involving animals were approved by the Institutional Animal Care and Use Committee at The Ohio State University."}, "[2]": {"test_system": "Human induced pluripotent stem cell-derived cardiomyocytes", "assay": "Doxorubicin-induced cell death in hiPSC-CMs", "assay_type": "cell-based", "settings": "48 hours, doxorubicin+ST-539"}, "[3]": {"settings": "ST-539 10 μg/ml, with A/O, presence of USP30"}}}
{"smiles": "CC(C)(C)NS(=O)(=O)c1cccc2c(NC(=O)C(Cc3ccccc3)NC(=O)c3ccccc3)cccc12", "note": "(centres unmarked) [ST-539]", "values": [{"measurement": "TOM20 ubiquitination and decline in TOM20 level on addition of ST-539", "setting": "TOM20; A/O plus ST-539 1 or 3 μg/ml, cells expressing both ectopic Parkin and endogenous PINK1", "result": "further potentiated"}, {"measurement": "correlation of TOM20 ubiquitination with ST-539 dosage", "setting": "TOM20; A/O treatment", "result": "A close correlation exists"}, {"measurement": "reduction in TOM20 level relative to vehicle treated cells", "setting": "TOM20; Parkin positive cells, A/O 18 h, ST-539 3 μg/ml, not in WT HeLa or PINK1 KO cells", "result": "more significant reduction"}, {"measurement": "TOM20 ubiquitination", "setting": "TOM20; [3]", "result": "caused a ubiquitinated TOM20"}, {"measurement": "loss of TOM20 protein level", "setting": "TOM20; [3]", "result": "~ 90%"}, {"measurement": "TOM20 ubiquitination independent of functional PINK1/Parkin pathway", "setting": "TOM20; long term treatment (18 h), ST-539 3 μg/ml", "result": "did not promote TOM20 ubiquitination"}, {"measurement": "TIM23 degradation", "setting": "TIM23", "result": "restored TIM23 and TOM40 degradation"}, {"measurement": "basal and maximal respiration", "setting": "[1]; 24 h ST-539, high dose", "result": "slight increase"}, {"measurement": "basal respiration and spare respiratory capacity", "setting": "[1]; ST-539, both cell lines", "result": "Slightly increased"}, {"measurement": "safety / tolerability in mice", "setting": "mice", "result": "appears to be safe in mice"}, {"measurement": "doxorubicin-induced cell death (percent survival of hiPSC-CMs)", "setting": "[2]", "result": "reduces doxorubicin-induced cell death"}]}
